{"source": "patent US20040254344A1", "about": "“Amino acid conjugates providing for sustained systemic concentrations of gaba analogues” (priority 2001, published 2004)", "key": {"[1]": {"conditions": "rat; for Cmax PD (Cmax of prodrug in plasma): oral prodrug 25 mg-equivalents of gabapentin per kg; for Cmax of gabapentin in plasma: single oral dose 25 mg/kg gabapentin or 25 mg-equivalents of gabapentin per kg", "procedure": "The pharmacokinetics of the prodrugs prepared in Examples 1 and 3 were examined in rats. […] Animals were fasted overnight prior to dosing and until 4 hours post-dosing. Serial blood samples were obtained over 24 hours following dosing and blood was processed for plasma by centrifugation. Plasma samples were stored at −80° C. until analyzed.\nPlasma (50 μL) was precipitated by addition of […] of methanol and supernatant was injected directly onto the LC/MS/MS system. […] Following oral administration of gabapentin prodrugs, concentrations of prodrug and gabapentin in plasma were monitored over 24 hours."}, "[2]": {"assay": "Caco-2 homogenate S9 stability", "assay_type": "in vitro ADME", "conditions": "incubation with Caco-2 homogenate for 1 hour, 5 μM, 37° C.", "procedure": "Tissue homogenates and plasma samples were obtained from commercial sources (Pel-Freez Biologicals, Rogers, Ark., and GenTest Corporation, Woburn, Mass.). Stability of prodrugs toward the specific enzyme aminopeptidase was also evaluated by incubation with the purified enzyme. Experimental conditions used for the in vitro studies were as follows. Each preparation was incubated with test compound at 37° C. for one hour. Aliquots (50 μL) were removed at 0, 30, and 60 min and quenched with 0.1% trifluoroacetic acid in acetonitrile. Samples were then centrifuged and analyzed for the presence of prodrug and released gabapentin by LC/MS/MS as described below.\nConcentrations of prodrug or gabapentin in tissue extracts were determined by direct injection onto an API 2000 LC/MS/MS equipped with an Agilent 1100 binary pump and autosampler. Separation was achieved using a 3.5 μm Zorbax Ellipse XDB-C8 4.4×150 mm column heated to 45° C. during the analysis. The mobile phases were: 0.1% formic acid in water (A) and 0.1% formic acid in acetonitrile (B). The gradient condition was: 2% B for 0.5 min, increasing to 90% B in 2.0 min, maintained for 2.5 min and returning to 2% B for 2 min. A TurboIonSpray source was used on the API 2000. The analysis was performed in the positive ion mode and MRM transitions of 172.0/137.2 were used in the analysis of gabapentin (2). Ten microliters of the sample extracts were injected. Peaks were integrated using Analyst quantitation software. The method was linear for (2) over the concentration range 0.002 to 2.5 μg/mL respectively.\nCaco-2 Homogenate S9 Stability: Caco-2 cells were grown for 21 days prior to harvesting. Culture medium was removed and cell monolayers were rinsed and scraped off into ice-cold 10 mM sodium phosphate/0.15 M potassium chloride, pH 7.4. Cells were lysed by sonication at 4° C. using a probe sonicator. Lysed cells were then transferred into 1.5 mL centrifuge vials and centrifuged at 9000 g for 20 min at 4° C. The resulting supernatant (Caco-2 cell homogenate S9 fraction) was aliquoted into 0.5 mL vials and stored at −80° C. until used.\nFor stability studies, prodrug (5 μM) was incubated in Caco-2 homogenate S9 fraction (0.5 mg protein per mL) for 60 min at 37° C. Concentrations of intact prodrug and released drug were determined at zero time and 60 minutes using LC/MS/MS."}, "[3]": {"conditions": "rat, oral and i.v. dosing of prodrug"}, "[4]": {"conditions": "monkey, sodium salt, 10 mg-equivalents of gabapentin per kg"}, "[5]": {"conditions": "monkey; for increase in gabapentin exposure (as measured by AUC) on a 7.5-fold increase in dose / AUC G (AUC of gabapentin) / Cmax G (Cmax of gabapentin): oral; for increase in gabapentin exposure (as measured by AUC) on a 7.5-fold increase in dose: 10 to 75 mg-eq/kg", "description": "The prodrug was administered orally to four adult male monkeys (approximate body weight of 6.5 kg) via an oral nasogastric tubeas solutions in water or PEG 400. The dose was 10 or 75 mg-equivalents of gabapentin per kg body weight. Animals were fasted overnight before the study and for 4 hours post-dosing. Blood samples (1.0 mL) were obtained via femoral or cephalic venipuncture at intervals over 48 hours after oral dosing. Blood was processed immediately for plasma and plasma was frozen at −80° C. until analyzed. […] Oral bioavailability was determined by comparison of area under the gabapentin concentration versus time curve (AUC) following oral administration of prodrug or intravenous administration of an equimolar dose of gabapentin hydrochloride."}, "PEPT2": {"test_system": "PEPT2", "conditions": "tested at 1 mM on oocytes expressing PEPT2; normalised to 1 mM glycyl-sarcosine", "procedure": "(§1) Rat and human PEPT1 and PEPT2 expressing CHO cell lines were prepared as described in PCT Application WO01/20331. Gabapentin-containing dipeptides were evaluated for interaction with the peptide transporters using a radiolabeled substrate uptake assay in a competitive inhibition format, as described in PCT Application WO01/20331. Transport-induced currents were also measured in Xenopus oocytes transfected with rat and human PEPT1 and PEPT2.\n(§2) RNA preparation: Rat and human PEPT1 and PEPT2 transporter cDNAs were subdcloned into a modified pGEM plasmid that contains 5′ and 3′ untranslated sequences from the Xenopus β-actin gene. These sequences increase RNA stability and protein expression. Plasmid cDNA was linearized and used as template for in vitro transcription (Epicentre Technologies transcription kit, 4:1 methylated:non-methylated GTP).\n(§3) Xenopus oocyte isolation. Xenopus laevis frogs were anesthetized by immersion in Tricaine ([…] in deionized water) for 15 min. […]\n(§4) Electrophysiology measurements. Transport currents were measured 2-14 days after injection, using a standard two-electrode electrophysiology set-up (Geneclamp 500 amplifier, Digidata 1320/PCLAMP software and ADInstruments hardware and software were used for signal acquisition)."}, "PEPT1": {"test_system": "PEPT1", "conditions": "tested at 1 mM on oocytes expressing PEPT1; normalised to 1 mM glycyl-sarcosine", "procedure": "as §1, §2, §3, §4"}}, "note": "Read-outs that look alike come from different tables or passages of the source.", "data": [{"compound": "N[C@@H](Cc1ccc(C(F)(F)F)cc1)C(=O)NCC1(CC(=O)O)CCCCC1", "note": "[1aa, L-4-Trifluoromethylphenylalanine-Gabapentin]", "values": [{"measurement": "Cmax PD (Cmax of prodrug in plasma)", "setting": "[1]", "result": 30000, "unit": "ng/mL"}, {"measurement": "% of prodrug surviving intact", "setting": "[2]", "result": 97, "unit": "%"}]}, {"compound": "N[C@@H](Cc1ccccc1F)C(=O)NCC1(CC(=O)O)CCCCC1", "note": "[1ab, L-2-Fluorophenylalanine-Gabapentin]", "values": [{"measurement": "fraction absorbed intact following oral administration", "setting": "[3]", "result": "about 60%"}]}, {"compound": "N[C@@H](Cc1ccc(Br)cc1)C(=O)NCC1(CC(=O)O)CCCCC1", "note": "[1ah, L-4-Bromophenylalanine-Gabapentin]", "values": [{"measurement": "AUC G (AUC of gabapentin)", "setting": "[4]; oral", "result": "29100 ± 3500", "unit": "ng·h/mL"}, {"measurement": "AUC PD (AUC of prodrug)", "setting": "[4]; oral", "result": "18900 ± 6500", "unit": "ng·h/mL"}, {"measurement": "Cmax G (Cmax of gabapentin)", "setting": "[4]; oral", "result": "3800 ± 1100", "unit": "ng/mL"}, {"measurement": "Cmax PD (Cmax of prodrug)", "setting": "[4]; oral", "result": "14900 ± 5300", "unit": "ng/mL"}, {"measurement": "F (oral bioavailability as gabapentin)", "setting": "[4]", "result": "49.1±6.8", "unit": "%"}, {"measurement": "Cmax PD (Cmax of prodrug in plasma)", "setting": "[1]", "result": 103000, "unit": "ng/mL"}, {"measurement": "Cmax of gabapentin in plasma", "setting": "[1]", "result": 6100, "unit": "ng/mL"}, {"measurement": "% of prodrug surviving intact", "setting": "[2]", "result": 79, "unit": "%"}]}, {"compound": "N#Cc1cccc(C[C@H](N)C(=O)NCC2(CC(=O)O)CCCCC2)c1", "note": "[1al, L-3-Cyanophenylalanine-Gabapentin]", "values": [{"measurement": "Cmax PD (Cmax of prodrug in plasma)", "setting": "[1]", "result": 600, "unit": "ng/mL"}, {"measurement": "% of prodrug surviving intact", "setting": "[2]", "result": 46, "unit": "%"}]}, {"compound": "N#Cc1ccc(C[C@H](N)C(=O)NCC2(CC(=O)O)CCCCC2)cc1", "note": "[1am, L-4-Cyanophenylalanine-Gabapentin]", "values": [{"measurement": "Cmax PD (Cmax of prodrug in plasma)", "setting": "[1]", "result": 22400, "unit": "ng/mL"}, {"measurement": "% of prodrug surviving intact", "setting": "[2]", "result": 90, "unit": "%"}]}, {"compound": "N[C@@H](Cc1cc(F)cc(F)c1)C(=O)NCC1(CC(=O)O)CCCCC1", "note": "[1ao, L-3,5-Difluorophenylalanine-Gabapentin]", "values": [{"measurement": "Cmax PD (Cmax of prodrug in plasma)", "setting": "[1]", "result": 2900, "unit": "ng/mL"}, {"measurement": "% of prodrug surviving intact", "setting": "[2]", "result": 48, "unit": "%"}]}, {"compound": "NC(Cc1ccc(F)cc1F)C(=O)NCC1(CC(=O)O)CCCCC1", "note": "[1ap, D, L-2,4-Difluorophenylalanine-Gabapentin]", "values": [{"measurement": "Cmax PD (Cmax of prodrug in plasma)", "setting": "[1]", "result": 278000, "unit": "ng/mL"}, {"measurement": "% of prodrug surviving intact", "setting": "[2]", "result": 90, "unit": "%"}]}, {"compound": "N[C@@H](CO)C(=O)NCC1(CC(=O)O)CCCCC1", "note": "[1ax, L-Serine-Gabapentin]", "values": [{"measurement": "fraction absorbed intact following oral administration", "setting": "[3]", "result": "15-20%"}, {"measurement": "increase in gabapentin exposure (as measured by AUC) on a 7.5-fold increase in dose", "setting": "[5]", "result": 5.1, "unit": "fold"}]}, {"compound": "N[C@@H](Cc1cccc2ccccc12)C(=O)NCC1(CC(=O)O)CCCCC1", "note": "[1l, L-1-Naphthylalanine-Gabapentin]", "values": [{"measurement": "Cmax PD (Cmax of prodrug in plasma)", "setting": "[1]", "result": 500, "unit": "ng/mL"}, {"measurement": "% of prodrug surviving intact", "setting": "[2]", "result": 29, "unit": "%"}]}, {"compound": "NCC1(CC(=O)O)CCCCC1", "note": "[compound 2, gabapentin]", "values": [{"measurement": "Cmax of gabapentin in plasma", "setting": "[1]", "result": 10300, "unit": "ng/mL"}, {"measurement": "F (oral bioavailability as gabapentin)", "setting": "[5]; 10 mg-eq/kg", "result": "53.9±17.3", "unit": "%"}, {"measurement": "F (oral bioavailability as gabapentin)", "setting": "[5]; 75 mg-eq/kg", "result": "22.9±1.1", "unit": "%"}, {"measurement": "AUC G (AUC of gabapentin)", "setting": "[5]; 10 mg-eq/kg", "result": "32100 ± 10400", "unit": "ng·h/mL"}, {"measurement": "Cmax G (Cmax of gabapentin)", "setting": "[5]; 10 mg-eq/kg", "result": "3700 ± 1600", "unit": "ng/mL"}, {"measurement": "AUC G (AUC of gabapentin)", "setting": "[5]; 75 mg-eq/kg", "result": "102000 ± 4900", "unit": "ng·h/mL"}, {"measurement": "Cmax G (Cmax of gabapentin)", "setting": "[5]; 75 mg-eq/kg", "result": "10800 ± 1300", "unit": "ng/mL"}, {"measurement": "increase in gabapentin exposure (as measured by AUC) on a 7.5-fold increase in dose", "setting": "[5]", "result": 3.2, "unit": "fold"}]}, {"compound": "CC(C)C[C@H](CNC(=O)[C@@H](N)Cc1ccc(Br)cc1)CC(=O)O", "note": "[compound 5, L-4-Bromophenylalanine-Pregabalin]", "values": [{"measurement": "PEPT-specific currents above background", "setting": "PEPT2", "result": "at least 5 % of Imax for Gly-Sar"}, {"measurement": "PEPT-specific currents above background", "setting": "PEPT1", "result": "at least 5 % of Imax for Gly-Sar"}]}, {"compound": "L-Tyrosine-(O-2-Bromobenzyloxycarbonyl)-Gabapentin [4d]", "values": [{"measurement": "% of prodrug surviving intact", "setting": "[2]", "result": 3, "unit": "%"}]}]}
